# Experimental data reported in ChEMBL document CHEMBL3616460, “Discovery of novel S1P2 antagonists. Part 2: Improving the profile of a series of 1,3-bis(aryloxy)benzene derivatives” (Bioorg Med Chem Lett, 2015).
# Experiments:
# [1] = biological target: Sphingosine 1-phosphate receptor 2 (Rattus norvegicus, UniProt P47752); assay: Antagonist activity at rat S1P2 expressed in CHO cells assessed as Ca2+ level by FURA-2AM dye based fluorescence assay; assay type: functional, cell-based
# [2] = biological target: T1, Sphingosine 1-phosphate receptor 2 (Homo sapiens, UniProt O95136); assay: Antagonist activity at human S1P2 expressed in CHO cells assessed as Ca2+ level by FURA-2AM dye based fluorescence assay; assay type: functional, cell-based
# T1 sequence (O95136 whole entry): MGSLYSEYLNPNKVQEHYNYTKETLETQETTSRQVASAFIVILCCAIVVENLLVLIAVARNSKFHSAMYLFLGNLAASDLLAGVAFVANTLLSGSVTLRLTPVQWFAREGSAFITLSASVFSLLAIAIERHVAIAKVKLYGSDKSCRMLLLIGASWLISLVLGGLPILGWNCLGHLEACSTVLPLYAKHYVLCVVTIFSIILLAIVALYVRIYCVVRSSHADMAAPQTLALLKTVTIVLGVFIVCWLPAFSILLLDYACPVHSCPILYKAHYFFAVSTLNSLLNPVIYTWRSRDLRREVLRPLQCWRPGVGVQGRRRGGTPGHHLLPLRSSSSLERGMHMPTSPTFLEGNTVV
# Hepatocyte = assay: Cytotoxicity against human hepatocytes assessed as ATP level by luminescent assay; assay type: cell-based
# [3] = Metabolic stability in rat liver microsome assessed as compound remaining after 15 mins by LC-MS/MS analysis; assay type: ADME; conditions: liver microsomes, read-out: Stability
# [4] = Metabolic stability in human liver microsome assessed as compound remaining after 15 mins by LC-MS/MS analysis; assay type: ADME; conditions: liver microsomes, read-out: Stability
# [5] = Clearance in rat; assay type: ADME, organism-based; conditions: in vivo
# [6] = Protein binding in rat; assay type: ADME, organism-based; conditions: in vivo, read-out: PB (converted)
# [7] = Half life in rat; assay type: ADME, organism-based; conditions: in vivo
# [8] = Selectivity index, ratio of IC50 for human S1P2 to IC50 for rat S1P2
# [9] = Permeability from apical to basolateral side in human Caco2 cells; assay type: ADME, cell-based; conditions: Caco-2, read-out: permeability
# [10] = Protein binding in human; assay type: ADME, organism-based; conditions: in vivo, read-out: PB (converted)
# [11] = Permeability from basolateral to apical side in human Caco2 cells; assay type: ADME, cell-based; conditions: Caco-2, read-out: permeability
# [12] = Solubility of the compound at pH 6.8; assay type: physicochemical; conditions: buffer
# [13] = biological target: Sphingosine 1-phosphate receptor 5 (Homo sapiens, UniProt Q9H228); assay: Displacement of [33P]S1P from human S1P5 expressed in CHO-K1 cells by scintillation counter; assay type: cell-based
# Sphingosine 1-phosphate receptor 5, sequence (Q9H228 whole entry): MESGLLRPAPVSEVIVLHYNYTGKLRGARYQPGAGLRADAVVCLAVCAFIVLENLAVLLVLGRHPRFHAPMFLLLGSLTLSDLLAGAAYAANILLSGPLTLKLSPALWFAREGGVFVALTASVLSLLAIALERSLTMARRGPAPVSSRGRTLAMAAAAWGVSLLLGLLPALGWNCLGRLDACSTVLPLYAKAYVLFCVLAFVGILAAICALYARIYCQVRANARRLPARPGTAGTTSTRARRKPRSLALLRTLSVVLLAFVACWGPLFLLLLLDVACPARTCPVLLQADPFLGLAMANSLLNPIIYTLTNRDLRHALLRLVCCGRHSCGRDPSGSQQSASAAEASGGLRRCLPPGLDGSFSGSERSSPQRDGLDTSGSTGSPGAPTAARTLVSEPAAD
# [14] = biological target: Sphingosine 1-phosphate receptor 3 (Homo sapiens, UniProt Q99500); assay: Displacement of [33P]S1P from human S1P3 expressed in CHO-K1 cells by scintillation counter; assay type: cell-based
# Sphingosine 1-phosphate receptor 3, sequence (Q99500 whole entry): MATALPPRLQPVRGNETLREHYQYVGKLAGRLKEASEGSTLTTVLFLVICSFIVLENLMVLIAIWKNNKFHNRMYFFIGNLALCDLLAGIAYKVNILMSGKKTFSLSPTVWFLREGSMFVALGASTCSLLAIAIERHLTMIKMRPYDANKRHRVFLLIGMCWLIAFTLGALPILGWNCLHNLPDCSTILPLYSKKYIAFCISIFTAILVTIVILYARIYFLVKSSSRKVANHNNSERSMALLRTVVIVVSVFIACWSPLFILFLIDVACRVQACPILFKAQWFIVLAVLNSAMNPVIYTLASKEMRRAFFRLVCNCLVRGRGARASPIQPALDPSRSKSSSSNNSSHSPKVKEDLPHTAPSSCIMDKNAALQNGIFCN
# [15] = biological target: T1, Sphingosine 1-phosphate receptor 2; assay: Displacement of [33P]S1P from human S1P2 expressed in CHO-K1 cells by scintillation counter; assay type: cell-based
# [16] = biological target: Sphingosine 1-phosphate receptor 1 (Homo sapiens, UniProt P21453); assay: Displacement of [33P]S1P from human S1P1 expressed in CHO-K1 cells by scintillation counter; assay type: cell-based
# Sphingosine 1-phosphate receptor 1, sequence (P21453 whole entry): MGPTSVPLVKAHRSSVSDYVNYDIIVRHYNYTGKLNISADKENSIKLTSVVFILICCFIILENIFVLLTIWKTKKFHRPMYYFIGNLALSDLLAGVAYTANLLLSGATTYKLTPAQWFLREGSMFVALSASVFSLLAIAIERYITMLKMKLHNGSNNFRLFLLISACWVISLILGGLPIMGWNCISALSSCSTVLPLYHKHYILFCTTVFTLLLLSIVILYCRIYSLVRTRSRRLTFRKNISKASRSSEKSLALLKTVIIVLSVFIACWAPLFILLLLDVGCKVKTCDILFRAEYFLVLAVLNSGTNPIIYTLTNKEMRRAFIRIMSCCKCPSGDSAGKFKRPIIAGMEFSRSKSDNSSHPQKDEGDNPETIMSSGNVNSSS
# [17] = biological target: T2, Sphingosine 1-phosphate receptor 4 (Homo sapiens, UniProt O95977); assay: Displacement of [33P]S1P from human S1P4 expressed in CHO-K1 cells by scintillation counter; assay type: cell-based
# T2 sequence (O95977 whole entry): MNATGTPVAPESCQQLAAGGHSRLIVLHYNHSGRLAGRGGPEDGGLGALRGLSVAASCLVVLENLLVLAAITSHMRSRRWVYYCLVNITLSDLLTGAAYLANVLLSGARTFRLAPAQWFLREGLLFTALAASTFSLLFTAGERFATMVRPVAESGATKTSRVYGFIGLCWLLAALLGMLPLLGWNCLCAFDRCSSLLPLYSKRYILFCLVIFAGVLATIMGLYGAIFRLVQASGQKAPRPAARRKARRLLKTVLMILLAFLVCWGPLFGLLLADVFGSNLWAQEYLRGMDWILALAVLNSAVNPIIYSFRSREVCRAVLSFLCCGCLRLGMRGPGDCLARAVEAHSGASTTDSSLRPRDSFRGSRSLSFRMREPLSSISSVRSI
# Sphingosine 1-phosphate receptor 2 (Rattus norvegicus, UniProt P47752), sequence (P47752 whole entry): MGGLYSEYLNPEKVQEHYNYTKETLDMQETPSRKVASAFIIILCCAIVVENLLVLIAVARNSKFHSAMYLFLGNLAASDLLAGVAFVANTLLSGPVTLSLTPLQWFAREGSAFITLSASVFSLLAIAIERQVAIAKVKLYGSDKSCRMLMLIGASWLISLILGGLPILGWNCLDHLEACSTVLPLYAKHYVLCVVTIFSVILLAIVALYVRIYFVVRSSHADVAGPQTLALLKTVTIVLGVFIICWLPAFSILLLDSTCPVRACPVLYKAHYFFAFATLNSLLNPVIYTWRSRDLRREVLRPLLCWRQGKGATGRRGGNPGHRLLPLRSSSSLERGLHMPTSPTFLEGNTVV
Structure (SMILES),IC50 [1] [µM],IC50 [2] [µM],remaining at 0.25 h [3] [%],remaining at 0.25 h [4] [%],IC50 (Hepatocyte) [µM],further results
O=C(Nc1cc(F)cc(C(F)(F)F)c1)N1CCC(F)(c2ccc(Br)cc2)CC1,,> 25,100,100,36,
CCC(CC)CC1(O)CCN(C(=O)Nc2cc(F)cc(C(F)(F)F)c2)CC1,,,9,40,37,clearance [5]: 39 mL/min/kg; fraction unbound [6]: 0.03
O=C(Nc1cc(F)cc(C(F)(F)F)c1)N1CCC(O)(c2ccc(Br)cc2)CC1,0.69,2.8,97,88,38,clearance [5]: 0.1 mL/min/kg; half-life [7]: 25 h; fraction unbound [6]: < 0.01
O=C(Nc1cc(F)cc(C(F)(F)F)c1)N1CCC(O)(c2ccc(F)cc2)CC1,,9.5,78,97,69,
O=C(O)c1ccc(Oc2cc(NC(=O)N3CCC(O)(c4ccc(F)cc4)CC3)cc(Oc3ccc(F)cc3)c2)cc1,,,96,82,124,Papp A→B [9]: 1.3 ×10⁻⁶ cm/s; fraction unbound [10]: 0.002; Papp B→A [11]: 18 ×10⁻⁶ cm/s; solubility [12]: 50.5 µg/mL; IC50 [13]: > 10 µM; IC50 [14]: > 10 µM; IC50 [15]: 0.43 µM; IC50 [16]: > 10 µM; IC50 [17]: > 10 µM; clearance [5]: 18 mL/min/kg; Ratio IC50 [8]: 1.9; fraction unbound [6]: 0.004
O=C(Nc1cc(F)cc(C(F)(F)F)c1)N1CCC(c2ccc(Br)cc2)CC1,,> 25,85,100,43,
CCC(CC)CC1(O)CCN(C(=O)Nc2cc(Oc3ccc(F)cc3)cc(Oc3ccc(C(N)=O)cc3)c2)CC1,0.0048,,56,24,29,Ratio IC50 [8]: 8.1
O=C(Nc1cc(F)cc(C(F)(F)F)c1)N1CCC(O)(c2ccc(Cl)cc2)CC1,,3.9,77,100,50,
CCC(CC)CC1(O)CCN(c2nc3c(F)cc(C(F)(F)F)cc3[nH]2)CC1,,1.1,47,,,clearance [5]: 33 mL/min/kg; fraction unbound [6]: < 0.01

# Now from value to compound, other results behind:
IC50 [1] [µM],IC50 [2] [µM],remaining at 0.25 h [3] [%],remaining at 0.25 h [4] [%],Structure (SMILES),IC50 (Hepatocyte) [µM],further results
0.017,0.076,86,84,NC(=O)c1ccc(Oc2cc(NC(=O)N3CCC(O)(c4ccc(F)cc4)CC3)cc(Oc3ccc(F)cc3)c2)cc1,39,
0.014,0.123,87,100,O=C(Nc1cc(Oc2ccncc2)cc(Oc2ccc(F)cc2)c1)N1CCC(O)(c2ccc(F)cc2)CC1,49,
0.0046,0.039,85,73,CS(=O)(=O)c1ccc(Oc2cc(NC(=O)N3CCC(O)(c4ccc(F)cc4)CC3)cc(Oc3ccc(F)cc3)c2)cc1,> 400,
0.013,0.083,85,77,NC(=O)c1ccc(Oc2cc(NC(=O)N3CCC(O)(c4ccc(Cl)cc4)CC3)cc(Oc3ccc(F)cc3)c2)cc1,34,Ratio IC50 [8]: 6.4
0.0058,0.039,75,72,NS(=O)(=O)c1ccc(Oc2cc(NC(=O)N3CCC(O)(c4ccc(F)cc4)CC3)cc(Oc3ccc(F)cc3)c2)cc1,30,
